Results as given in patent US20250352550A1, “SUBSTITUTED FUROPYRIDINES FOR THERAPEUTIC USE” (MASARYKOVA UNIVERZITA, priority 2022, published 2025).

Assays:
FLT3 = target: T1, FLT3 (Homo sapiens, UniProt P36888); experiment: HotSpot radiometric kinase assay (Reaction Biology), FLT3; type: biochemical; settings: 4 nM kinase, substrate ABLtide 20 μM, 33P-ATP, 120 minutes at room temperature
T1 construct: purchased Reaction Biology
T1 sequence (P36888 27-993): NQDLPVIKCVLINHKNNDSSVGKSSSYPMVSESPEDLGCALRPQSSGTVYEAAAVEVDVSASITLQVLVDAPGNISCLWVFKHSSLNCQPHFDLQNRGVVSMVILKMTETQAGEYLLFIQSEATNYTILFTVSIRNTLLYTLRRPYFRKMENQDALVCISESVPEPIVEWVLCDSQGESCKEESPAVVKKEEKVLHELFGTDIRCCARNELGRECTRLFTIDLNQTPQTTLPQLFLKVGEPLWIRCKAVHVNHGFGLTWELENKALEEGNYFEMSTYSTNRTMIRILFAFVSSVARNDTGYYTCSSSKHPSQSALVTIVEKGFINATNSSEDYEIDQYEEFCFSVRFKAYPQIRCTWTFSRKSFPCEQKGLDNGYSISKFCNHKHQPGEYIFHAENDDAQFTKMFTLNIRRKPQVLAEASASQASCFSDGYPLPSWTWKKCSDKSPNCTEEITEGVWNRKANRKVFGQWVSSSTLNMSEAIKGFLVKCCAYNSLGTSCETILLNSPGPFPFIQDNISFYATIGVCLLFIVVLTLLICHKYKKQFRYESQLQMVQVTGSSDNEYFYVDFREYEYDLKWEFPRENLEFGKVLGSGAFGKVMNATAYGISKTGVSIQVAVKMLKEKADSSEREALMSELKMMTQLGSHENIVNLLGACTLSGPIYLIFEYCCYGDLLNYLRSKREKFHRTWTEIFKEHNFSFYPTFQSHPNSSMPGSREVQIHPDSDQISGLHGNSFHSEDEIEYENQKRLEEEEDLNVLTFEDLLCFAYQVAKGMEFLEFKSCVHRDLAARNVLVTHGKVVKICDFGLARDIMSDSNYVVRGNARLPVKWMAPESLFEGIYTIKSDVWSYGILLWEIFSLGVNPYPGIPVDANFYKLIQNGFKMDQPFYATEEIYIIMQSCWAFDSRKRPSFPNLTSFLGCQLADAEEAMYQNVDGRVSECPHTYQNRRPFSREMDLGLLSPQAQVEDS
Procedure: (§1) The compounds were profiled in the HotSpot radiometric assays (Reaction Biology).
(§2) Briefly, • 1. Substrate indicated in Table 1 was dissolved in freshly prepared reaction buffer (20 mM HEPES (pH 7.5), 10 mM MgCl2, 1 mM EGTA, 0.01% Brij35, 0.02 mg/ml BSA, 0.1 mM Na3VO4, 2 mM DTT, 1% DMSO) at the concentration indicated in Table 1. • 2. Corresponding kinase (concentration indicated in Table 1) was added and the mixture was gently mixed. • 3. Tested compound dissolved in DMSO was added into the kinase reaction mixture. • 4. ^33P-ATP (specific activity 0.01 μCi/μL final) was added into the reaction mixture to initiate the reaction. • 5. The kinase reaction was incubated for 120 minutes at room temperature. • 6. Reaction mixture was spotted onto P81 ion exchange paper (Whatman K 3698-915). • 7. The filters were extensively washed with 0.754 phosphoric acid. • 7. The radioactive phosphorylated substrate remaining on the filter paper was measured.
(§3) Kinase activity data were expressed as the percent remaining kinase activity in tested samples compared to the vehicle (DMSO) reactions. IC50 values and curve fits were obtained using Prism4 Software (GraphPad).
Table 2 summarizes the inhibitory activities of indicated compounds tested in the in vitro kinase assays described above.

DDR1 = target: T2, DDR1 (Homo sapiens, UniProt Q08345); experiment: HotSpot radiometric kinase assay (Reaction Biology), DDR1; type: biochemical; settings: 200 nM kinase, substrate IRS1tide 20 μM, 33P-ATP, 120 minutes at room temperature
T2 construct: purchased Reaction Biology
T2 sequence (Q08345 19-913): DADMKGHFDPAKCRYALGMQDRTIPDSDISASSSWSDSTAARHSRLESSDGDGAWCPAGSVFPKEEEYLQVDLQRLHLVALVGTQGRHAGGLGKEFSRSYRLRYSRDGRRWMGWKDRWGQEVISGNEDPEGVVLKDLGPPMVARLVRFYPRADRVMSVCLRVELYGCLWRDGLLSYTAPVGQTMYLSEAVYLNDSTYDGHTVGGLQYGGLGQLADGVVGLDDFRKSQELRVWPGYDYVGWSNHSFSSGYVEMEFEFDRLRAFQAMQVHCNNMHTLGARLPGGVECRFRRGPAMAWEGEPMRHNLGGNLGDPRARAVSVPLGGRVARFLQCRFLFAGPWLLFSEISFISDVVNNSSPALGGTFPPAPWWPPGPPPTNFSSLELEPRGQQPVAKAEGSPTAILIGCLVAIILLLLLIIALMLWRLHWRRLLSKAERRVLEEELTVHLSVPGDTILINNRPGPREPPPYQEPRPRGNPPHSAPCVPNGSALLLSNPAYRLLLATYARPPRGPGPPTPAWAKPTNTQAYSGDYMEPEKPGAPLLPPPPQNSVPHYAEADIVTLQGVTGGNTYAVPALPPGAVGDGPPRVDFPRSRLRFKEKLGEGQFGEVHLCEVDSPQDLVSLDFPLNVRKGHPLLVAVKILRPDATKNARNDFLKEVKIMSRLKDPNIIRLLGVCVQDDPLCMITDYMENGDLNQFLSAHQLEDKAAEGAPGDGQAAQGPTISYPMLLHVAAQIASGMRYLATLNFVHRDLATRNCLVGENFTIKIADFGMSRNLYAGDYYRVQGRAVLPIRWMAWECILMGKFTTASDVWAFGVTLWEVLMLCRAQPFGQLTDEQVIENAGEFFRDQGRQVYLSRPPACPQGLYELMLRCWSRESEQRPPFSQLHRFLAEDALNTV
Procedure: as §1
as §2, with “Reaction mixture was spotted onto P81 ion exchange paper (Whatman K 3698-915). • 7. The filters were extensively washed with 0.754 phosphoric acid. • 7.” left out
as §3

| IC50 (FLT3) | IC50 (DDR1) | SMILES |
| --- | --- | --- |
| 496 nM |  | CN1CCN(c2ccc(-c3cnc4c(-c5cccc(C(N)=O)c5F)coc4c3)cc2)CC1 [Preparative Example 214, 2-fluoro-3-(6-(4-(4-methylpiperazin-1-yl)phenyl)furo[3,2-b]pyridin-3-yl)benzamide] |
| 96 nM | 148 nM | Cc1oc2cc(-c3ccc(N4CCN(C)CC4)cc3)cnc2c1-c1ccccc1 [Preparative Example 196, 1-methyl-4-(4-{2-methyl-3-phenylfuro[3,2-b]pyridin-6-yl}phenyl)piperazine] |
| 99 nM | 622 nM | CCOC(=O)Nc1cccc(-c2coc3cc(-c4ccc(N5CCN(C)CC5)cc4)cnc23)c1 [Preparative Example 83, ethyl (3-(6-(4-(4-methylpiperazin-1-yl)phenyl)furo[3,2-b]pyridin-3-yl)phenyl)carbamate] |
| 1950 nM |  | c1ccc(-c2coc3ccc(Nc4ccc(N5CCOCC5)cc4)nc23)cc1 [compound 8B from WO 2015/165428, reference compound] |
| 54 nM | 196 nM | COCc1cccc(-c2coc3cc(-c4ccc(N5CCNCC5)cc4)cnc23)c1 [Preparative Example 70, 3-(3-(methoxymethyl)phenyl)-6-(4-(piperazin-1-yl)phenyl)furo[3,2-b]pyridine] |
| 28 nM | 200 nM | CN1CCN(c2ccc(-c3cnc4c(-c5ccc(C#N)cc5)coc4c3)cc2)CC1 [Preparative Example 257, 4-(6-(4-(4-methylpiperazin-1-yl)phenyl)furo[3,2-b]pyridin-3-yl)benzonitrile] |
| 1030 nM |  | CN1CCN(c2ccc(Nc3ccc4occ(-c5ccccc5)c4n3)cc2)CC1 [compound 8C from WO 2015/165428, reference compound] |
|  | 184 nM | CN1CCN(c2ccc(-c3cnc4c(-c5cccc(-c6ccccc6)c5)coc4c3)cc2)CC1 [Preparative Example 158, 3-([1,1′-biphenyl]-3-yl)-6-(4-(4-methylpiperazin-1-yl)phenyl)furo[3,2-b]pyridine] |
|  | 329 nM | C(#Cc1coc2cc(-c3ccc(N4CCNCC4)cc3)cnc12)c1ccccc1 [Preparative Example 191, 1-{4-[3-(2-phenylethynyl)furo[3,2-b]pyridin-6-yl]phenyl}piperazine] |
| 139 nM |  | c1ccc(Nc2cnc3c(-c4ccncc4)coc3c2)cc1 [Preparative Example 84, N-phenyl-3-(pyridin-4-yl)furo[3,2-b]pyridin-6-amine] |
| 138 nM |  | O=S(=O)(NCc1ccccc1)c1cccc(-c2coc3cc(-c4ccc(N5CCNCC5)cc4)cnc23)c1 [Preparative Example 122, N-benzyl-3-(6-(4-(piperazin-1-yl)phenyl)furo[3,2-b]pyridin-3-yl)benzenesulfonamide] |
| 2720 nM |  | c1ccc(Nc2ccc3occ(-c4ccccc4)c3n2)cc1 [compound 8E from WO 2015/165428, reference compound] |
|  | 208 nM | CCCc1oc2cc(-c3ccc(N4CCN(C)CC4)cc3)cnc2c1-c1ccc(C(N)=O)cc1 [Preparative Example 243, 4-{6-[4-(4-methylpiperazin-1-yl)phenyl]-2-propylfuro[3,2-b]pyridin-3-yl}benzamide] |
| 113 nM |  | CN1CCN(c2ccc(-c3cnc4c(-c5ccc(NC(N)=O)cc5)coc4c3)cc2)CC1 [Preparative Example 251, (4-{6-[4-(4-methylpiperazin-1-yl)phenyl]furo[3,2-b]pyridin-3-yl}phenyl)urea] |
| 608 nM |  | CC(C)c1ccc(-c2coc3cc(-c4ccc(N5CCNCC5)cc4)cnc23)cc1 [Preparative Example 67, 3-(4-isopropylphenyl)-6-(4-(piperazin-1-yl)phenyl)furo[3,2-b]pyridine] |
| 99 nM |  | c1cc(-c2coc3cc(-c4ccc(N5CCOCC5)nc4)cnc23)ccn1 [Preparative Example 23, 6-(6-morpholinopyridin-3-yl)-3-(pyridin-4-yl)furo[3,2-b]pyridine] |
| 183 nM |  | c1ccc(-c2cnc3c(-c4ccncc4)coc3c2)cc1 [Preparative Example 22, 6-phenyl-3-(pyridin-4-yl)furo[3,2-b]pyridine] |
| 279 nM |  | Cc1cc(-c2coc3cc(-c4ccc(N5CCNCC5)cc4)cnc23)cc(C)n1 [Preparative Example 8, 3-(2,6-dimethylpyridin-4-yl)-6-(4-(piperazin-1-yl)phenyl)furo[3,2-b]pyridine] |
| 137 nM |  | Cc1nc2c(-c3ccncc3)coc2cc1-c1ccc(N2CCN(C)CC2)cc1 [Preparative Example 80, 5-methyl-6-(4-(4-methylpiperazin-1-yl)phenyl)-3-(pyridin-4-yl)furo[3,2-b]pyridine] |
| 54 nM |  | CN1CCN(c2ccc(-c3cnc4c(-c5ccc(CC(N)=O)cc5)coc4c3)cc2)CC1 [Preparative Example 236, 2-(4-(6-(4-(4-methylpiperazin-1-yl)phenyl)furo[3,2-b]pyridin-3-yl)phenyl)acetamide] |
| 90 nM |  | Nc1ccc(-c2cnc3c(-c4ccncc4)coc3c2)cc1 [Preparative Example 47, 4-(3-(pyridin-4-yl)furo[3,2-b]pyridin-6-yl)aniline] |
| 203 nM |  | c1ncc(-c2coc3cc(-c4ccc(N5CCNCC5)cc4)cnc23)cn1 [Preparative Example 206, 5-{6-[4-(piperazin-1-yl)phenyl]furo[3,2-b]pyridin-3-yl}pyrimidine] |
| 1240 nM |  | c1ccc(-c2coc3ccc(Nc4ccncc4)nc23)cc1 [compound 8D from WO 2015/165428, reference compound] |
| 136 nM |  | c1cc(-c2coc3cc(-c4ccc(N5CCCCC5)nc4)cnc23)ccn1 [Preparative Example 48, 6-(6-(piperidin-1-yl)pyridin-3-yl)-3-(pyridin-4-yl)furo[3,2-b]pyridine] |
| 790 nM |  | Cc1ccc(NC(=O)c2cccc(-c3coc4cc(-c5ccc(N6CCNCC6)cc5)cnc34)c2)cc1 [Preparative Example 119, 3-(6-(4-(piperazin-1-yl)phenyl)furo[3,2-b]pyridin-3-yl)-N-(p-tolyl)benzamide] |
|  | 549 nM | CN1CCN(c2ccc(-c3cnc4c(-c5ccccc5)c(-c5ccccc5)oc4c3)cc2)CC1 [Preparative Example 249, 1-(4-{2,3-diphenylfuro[3,2-b]pyridin-6-yl}phenyl)-4-methylpiperazine] |
| 46 nM |  | NC(=O)Nc1cccc(-c2coc3cc(-c4ccccc4)cnc23)c1 [1-(3-(6-phenylfuro[3,2-b]pyridin-3-yl)phenyl)urea] |
|  | 261 nM | COc1ccc(-c2coc3cc(-c4ccc(N5CCN(C)CC5)cc4)cnc23)cn1 [Preparative Example 259, 3-(6-methoxypyridin-3-yl)-6-(4-(4-methylpiperazin-1-yl)phenyl)furo[3,2-b]pyridine] |
| 122 nM |  | CN(C)CCN(C)c1ccc(Nc2cnc3c(-c4ccncc4)coc3c2)cc1 [Preparative Example 98, N^1-(2-(dimethylamino)ethyl)-N^1-methyl-N^4-(3-(pyridin-4-yl)furo[3,2-b]pyridin-6-yl)benzene-1,4-diamine] |
|  | 312 nM | CCCc1oc2cc(-c3ccc(N4CCN(C)CC4)cc3)cnc2c1-c1cnn(C)c1 [Preparative Example 245, 1-methyl-4-{4-[3-(1-methyl-1H-pyrazol-4-yl)-2-propylfuro[3,2-b]pyridin-6-yl]phenyl}piperazine] |
